Experimental data taken from patent US12186401B2, “Amide-based proteolysis modulators of B-rapidly accelerated fibrosarcoma (BRAF) and associated uses” (Ontario Institute for Cancer Research (OICR), priority 2019, dated 2025).
Where two headings read alike, the source gives them in different places.

Experiments:
[1] = molecular target: B-Raf (V600E) (h) (Homo sapiens, UniProt P15056, V600E); assay: Kinase inhibition assay B-Raf (V600E) (h), radiometric 33P-ATP filter assay; type: biochemical; details: read-out: IC50(nM) BRAF^V600E
Protocol: (§1) b-Raf (V599E) (h) was incubated with 25 mM Tris/HCl pH 7.5, 0.2 mM EGTA, 10 mM DTT, 0.01% Triton X-100, 0.5 mM, sodium orthovandate, 0.5 mM […], 1% glycerol, 34 nM unactive MEK1, 69 nM unactive MAPK2, 0.5 mg/mL myelin basic protein, and 10 mM Magnesium acetate and […] (specific activity and concentration as required). The reaction was initiated by the addition of the Mg/ATP mix. After incubation for 40 minutes at room temperature, the reaction was stopped by the addition of phosphoric acid to a concentration of 0.5%. 10 μL of the reaction was then spotted onto a P30 filtermat and washed four times for 4 minutes in 0.425% phosphoric acid and once in methanol prior to drying and scintillation counting. Similar protocols were used for other kinase assays employing the kinase of interest to generate the data in Table 1.

[2] = molecular target: T1, ARAF (Homo sapiens, UniProt P10398); assay: Kinase inhibition assay ARAF (similar protocol); type: biochemical
T1 sequence (P10398 1-606): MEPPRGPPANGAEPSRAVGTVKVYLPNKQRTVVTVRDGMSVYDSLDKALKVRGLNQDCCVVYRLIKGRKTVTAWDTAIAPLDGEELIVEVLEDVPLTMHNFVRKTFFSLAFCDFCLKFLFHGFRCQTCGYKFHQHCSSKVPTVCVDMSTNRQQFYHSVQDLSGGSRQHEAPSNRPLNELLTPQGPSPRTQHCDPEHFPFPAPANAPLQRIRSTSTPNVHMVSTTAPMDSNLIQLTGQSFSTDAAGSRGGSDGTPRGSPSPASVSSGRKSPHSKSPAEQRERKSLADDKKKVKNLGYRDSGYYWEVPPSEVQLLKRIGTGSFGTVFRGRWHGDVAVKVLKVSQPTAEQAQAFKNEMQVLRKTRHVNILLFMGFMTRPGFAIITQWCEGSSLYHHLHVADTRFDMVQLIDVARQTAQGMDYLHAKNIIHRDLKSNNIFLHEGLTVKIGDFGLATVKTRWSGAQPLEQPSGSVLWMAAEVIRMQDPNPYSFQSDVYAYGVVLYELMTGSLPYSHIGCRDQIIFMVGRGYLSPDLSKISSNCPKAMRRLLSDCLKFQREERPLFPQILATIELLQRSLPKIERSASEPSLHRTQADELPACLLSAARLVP
Protocol: as §1

[3] = molecular target: T2, CRAF (Homo sapiens, UniProt P04049); assay: Kinase inhibition assay CRAF (similar protocol); type: biochemical
Protocol: as §1

[4] = molecular target: T3, BRAF^V600E (Homo sapiens, UniProt P15056, V600E); assay: Cellular degradation assay, Western blot of BRAF^V600E; type: cell-based
T3 construct: A375 or SK-Mel-28 cells were obtained from ATCC; host or cells: A375 or SK-Mel-28
Protocol: (§2) Cell culture and compound treatment: A375 or SK-Mel-28 cells were obtained from ATCC and cultured in Dulbecco's Modified Eagle Media (DMEM) supplemented with 10% FBS, penicillin and streptomycin, at 37° C., 5% CO2. Cells grown in 6-well plates were treated for 24 hours with test compounds (solubilized in DMSO) or 0.1% DMSO vehicle control. Cells were harvested by first washing with 1× phosphate-buffered saline (PBS), then scrapping into 1 ml of PBS supplemented with 1 mM phenylmethylsulfonylflouride (PMSF). Cell pellets were obtained after a centrifugation at 300-350×g for 2 min, and immediately snap frozen in liquid nitrogen.
(§3) Cell lysis and Western blot analysis: Cell pellets were thawed and lysed by pipetting in lysis buffer (50 mM HEPES (pH 7.4), 150 mM NaCl, 5 mM EDTA, 0.5% NP-40, 5 mM NaF, 10% glycerol), with Roche protease inhibitor cocktail (5056489001) and phosphatase inhibitor cocktail PhosStop (4906845001) added fresh before use. The whole cell lysate was clarified by centrifugation at 15,000-20,000×g for 20 min and supernatant was collected. Total protein concentration in the clarified lysate was determination by Bradford assay (Bio-Rad), and 30-50 ug of protein was separated through SDS-PAGE, transferred onto nitrocellulose membrane and subject to standard immunoblotting protocol. Band intensities were quantified by Bio-Rad Image Lab software. Antibodies to B-Raf (sc-5284), A-Raf (sc-166771), phosphor MEK1/2, pS218/222 (sc-7995), phosphor ERK1/2 (sc-7383) were purchased from Santa Cruz; C-Raf (9422), MEK1/2 (9122), ERK1/2 (9102) from Cell Signaling; p27 (610242) from BD Biosciences. Antibody to the loading control α-tubulin was obtained from Sigma-Aldrich (6199).

[5] = molecular target: T2, CRAF; assay: Cellular degradation assay, Western blot of CRAF; type: cell-based; set-up: host or cells: A375; details: A375 human melanoma cells, 24 hrs; negative control 100 nM, PROTAC 0 to 4000 nM
Protocol: as §2
as §3, with “Antibodies to B-Raf (sc-5284), A-Raf (sc-166771), phosphor MEK1/2, pS218/222 (sc-7995), phosphor ERK1/2 (sc-7383) were purchased from Santa Cruz; C-Raf (9422), MEK1/2 (9122), ERK1/2 (9102) from Cell Signaling; p27 (610242) from BD Biosciences. Antibody to the loading control α-tubulin was obtained from Sigma-Aldrich (6199).” left out

[6] = molecular target: T1, ARAF; assay: Cellular degradation assay, Western blot of ARAF; type: cell-based; set-up: host or cells: A375; details: A375 human melanoma cells, 24 hrs; negative control 100 nM, PROTAC 0 to 4000 nM
Protocol: as §2
as §3, with “Antibodies to B-Raf (sc-5284), A-Raf (sc-166771), phosphor MEK1/2, pS218/222 (sc-7995), phosphor ERK1/2 (sc-7383) were purchased from Santa Cruz; C-Raf (9422), MEK1/2 (9122), ERK1/2 (9102) from Cell Signaling; p27 (610242) from BD Biosciences. Antibody to the loading control α-tubulin was obtained from Sigma-Aldrich (6199).” left out

[7] = molecular target: BRAF (Homo sapiens, UniProt P15056); assay: Kinase inhibition assay BRAF (similar protocol); type: biochemical
Protocol: as §1

[8] = system: MEK and ERK kinase phosphorylation; assay: Immunoblot of downstream MEK and ERK kinase phosphorylation in A375 cells; type: cell-based; details: A375 human melanoma cells, 24 hrs
Protocol: as §2
as §3, with “Antibodies to B-Raf (sc-5284), A-Raf (sc-166771), phosphor MEK1/2, pS218/222 (sc-7995), phosphor ERK1/2 (sc-7383) were purchased from Santa Cruz; C-Raf (9422), MEK1/2 (9122), ERK1/2 (9102) from Cell Signaling; p27 (610242) from BD Biosciences. Antibody to the loading control α-tubulin was obtained from Sigma-Aldrich (6199).” left out

[9] = Table 1, cells treated 24 hours, Western blot
[10] = Table 1, cells treated 24 hours, Western blot, read-out: DC50(nM) BRAF^V600E
[11] = A375 human melanoma cells, 24 hrs

T3 sequence (P15056 whole entry V600E): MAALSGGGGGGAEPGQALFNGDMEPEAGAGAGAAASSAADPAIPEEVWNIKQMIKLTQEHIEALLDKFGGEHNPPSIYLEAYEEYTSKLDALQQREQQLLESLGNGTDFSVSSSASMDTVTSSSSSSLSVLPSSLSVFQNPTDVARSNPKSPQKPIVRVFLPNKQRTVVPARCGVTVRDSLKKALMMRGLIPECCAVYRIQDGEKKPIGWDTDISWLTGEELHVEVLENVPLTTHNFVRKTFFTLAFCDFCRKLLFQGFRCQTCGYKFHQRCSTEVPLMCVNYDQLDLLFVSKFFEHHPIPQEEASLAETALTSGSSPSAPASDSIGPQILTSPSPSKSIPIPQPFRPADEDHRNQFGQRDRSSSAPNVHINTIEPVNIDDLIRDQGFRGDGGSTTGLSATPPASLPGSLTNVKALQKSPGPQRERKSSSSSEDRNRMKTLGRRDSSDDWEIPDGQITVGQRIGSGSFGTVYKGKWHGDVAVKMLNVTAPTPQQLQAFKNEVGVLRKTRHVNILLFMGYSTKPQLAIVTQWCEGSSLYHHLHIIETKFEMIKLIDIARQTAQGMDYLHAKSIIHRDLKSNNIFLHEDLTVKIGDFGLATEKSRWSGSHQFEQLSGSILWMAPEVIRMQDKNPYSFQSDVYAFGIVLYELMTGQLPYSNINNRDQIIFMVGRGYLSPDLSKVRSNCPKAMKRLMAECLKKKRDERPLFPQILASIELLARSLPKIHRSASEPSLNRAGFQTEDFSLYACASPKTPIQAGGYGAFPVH
B-Raf (V600E) (h), sequence (P15056 whole entry V600E): as above
T2 sequence (P04049 whole entry): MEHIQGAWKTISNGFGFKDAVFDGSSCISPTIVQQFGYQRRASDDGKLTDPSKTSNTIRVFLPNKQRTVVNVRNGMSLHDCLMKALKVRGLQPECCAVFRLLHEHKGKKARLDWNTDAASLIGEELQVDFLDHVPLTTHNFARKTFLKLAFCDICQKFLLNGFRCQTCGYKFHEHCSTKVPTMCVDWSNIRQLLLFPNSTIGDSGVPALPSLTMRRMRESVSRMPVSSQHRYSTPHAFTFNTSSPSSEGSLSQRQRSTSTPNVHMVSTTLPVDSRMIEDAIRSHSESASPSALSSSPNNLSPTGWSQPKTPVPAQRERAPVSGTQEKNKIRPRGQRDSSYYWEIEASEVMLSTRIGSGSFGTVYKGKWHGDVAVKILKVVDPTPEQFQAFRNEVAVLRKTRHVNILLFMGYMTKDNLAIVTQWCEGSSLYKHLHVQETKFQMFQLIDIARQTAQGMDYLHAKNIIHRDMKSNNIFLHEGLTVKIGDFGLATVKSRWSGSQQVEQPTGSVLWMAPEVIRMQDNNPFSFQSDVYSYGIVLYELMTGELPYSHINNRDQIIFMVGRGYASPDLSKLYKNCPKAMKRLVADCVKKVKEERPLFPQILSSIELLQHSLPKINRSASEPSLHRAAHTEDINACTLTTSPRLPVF
BRAF, sequence (P15056 whole entry): as the sequence (P15056 whole entry V600E) above, with E600V counted along it

IC50 [1] [nM]	IC50 [2] [nM]	IC50 [3] [nM]	degradation of BRAF^V600E by immunoblot (FIGS. 4 and 5) ([4]; A375 human melanoma cells, 24 hrs, listed as Pmd-PEG3-Dabrafenib#1)	DCmax(%) BRAF^V600E [4, 9] [%]	degradation activity on CRAF (FIG. 3C) [5]	degradation activity on ARAF (FIG. 3C) [6]	IC50 [7] [nM]	DCmax, degradation of BRAF^V600E kinase (FIG. 3C) ([4]; A375 human melanoma cells, 24 hrs, 0 to 4000 nM) [%]	DC50 ([4]; A375 human melanoma cells, 24 hrs, 0 to 4000 nM, read-out: DC50, degradation of BRAF^V600E kinase (FIG. 3C)) [nM]	DC50 [4, 10] [nM]	IC50 ([8]; A-375, read-out: BRAF^V600E IC50, inhibition of downstream MEK and ERK kinase phosphorylation, 0 to 4000 nM) [nM]	degradation of BRAF^V600E by immunoblot (FIGS. 4 and 5) [4, 11]	SMILES	inhibition of downstream MEK and ERK kinase phosphorylation (FIG. 3C) ([8]; negative control 100 nM, PROTAC 0 to 4000 nM)
47	> 10000	22	No degradation	0	–	–	–	–	–	–	–	–	CCCS(=O)(=O)Nc1ccc(F)c(-n2cc(-c3cncnc3)c3nc(N(C)C4CCN(C(=O)CCOCCOCCOCCNc5cccc6c5C(=O)N(C5CCC(=O)NC5=O)C6=O)CC4)ccc32)c1F (stereo not drawn) [Entry 2]	–
12	2220	167	–	82	not ARAF and CRAF	not ARAF and CRAF	58	80	20	15	20	–	CCCS(=O)(=O)Nc1ccc(F)c(-n2cc(-c3cncnc3)c3nc(N(C)C4CCN(C(=O)CCOCCOCCOCCOCCNc5cccc6c5C(=O)N(C5CCC(=O)NC5=O)C6=O)CC4)ccc32)c1F (stereo not drawn) [Entry 17, N-(3-(5-((1-(1-((2-(2,6-dioxopiperidin-3-yl)-1,3-dioxoisoindolin-4-yl)amino)-3,6,9,12-tetraoxapentadecan-15-oyl)piperidin-4-yl)(methyl)amino)-3-(pyrimidin-5-yl)-1H-pyrrolo[3,2-b]pyridin-1-yl)-2,4-difluorophenyl)propane-1-sulfonamide]	inhibition of downstream MEK and ERK kinase phosphorylation
25	3620	223	–	73	–	–	66	–	–	50	–	Degradation of BRAF^V600E was observed	CCCS(=O)(=O)Nc1ccc(F)c(-n2cc(-c3cncnc3)c3nc(N(C)C4CCN(C(=O)CCOCCOCCOCCOCCOCCNc5cccc6c5C(=O)N(C5CCC(=O)NC5=O)C6=O)CC4)ccc32)c1F (stereo not drawn) [Entry 18, N-(3-(5-((1-(1-((2-(2,6-dioxopiperidin-3-yl)-1,3-dioxoisoindolin-4-yl)amino)-3,6,9,12,15-pentaoxaoctadecan-18-oyl)piperidin-4-yl)(methyl)amino)-3-(pyrimidin-5-yl)-1H-pyrrolo[3,2-b]pyridin-1-yl)-2,4-difluorophenyl)propane-1-sulfonamide]	–
65	> 10000	532	–	60	–	–	–	–	–	10	–	Degradation of BRAF^V600E was observed	CCCS(=O)(=O)Nc1ccc(F)c(-n2cc(-c3cncnc3)c3nc(N(C)C4CCN(C(=O)CCOCCOCCOCCNc5cccc6c5C(=O)N(C5CCC(=O)NC5=O)C6=O)CC4)ccc32)c1F (stereo not drawn) [Entry 16, N-(3-(5-((1-(3-(2-(2-(2-((2-(2,6-dioxopiperidin-3-yl)-1,3-dioxoisoindolin-4-yl)amino)ethoxy)ethoxy)ethoxy)propanoyl)piperidin-4-yl)(methyl)amino)-3-(pyrimidin-5-yl)-1H-pyrrolo[3,2-b]pyridin-1-yl)-2,4-difluorophenyl)propane-1-sulfonamide]	–
